Molecules are shown by their SMILES. A value given as a limit tells only on which side of the number the result lay.

Experimental findings from patent US10851115B2, “Heterocyclic compounds as RSV inhibitors” (Enanta Pharmaceuticals, Inc., priority 2017, dated 2020) are described below.

The first test concerns Human RSV-A (“Long” strain). Nature of the test: RSV in vitro cytoprotection assay in HEp-2 cells (ATPlite readout). Type of test: cell-based. To be noted: human respiratory syncytial virus, 96 h; HEp-2 cells, 4-day incubation, ATPlite; read-out: Human RSV-A (“Long” strain) EC50. The gist of the method: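 HEp-2 cells (8,000/well) given 2-fold compound dilutions in duplicate, then infected with RSV-A Long stock; 4-day incubation. Cell viability read by ATPlite luminescence (ATP), with parallel uninfected plate for cytotoxicity; EC50 from protection against CPE.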
For the compound `Cc1cnc(N2CC3(CCOCC3)C2)c(C(=O)Nc2ccc(C(=O)N3CCc4cc(-c5nc6ccccc6[nH]5)sc4-c4cc(C)sc43)cc2)c1` [Example 132], the EC50 was 10 to 50 nM.

For `Cc1cnc(N2CC3(CCOCC3)C2)c(C(=O)Nc2ccc(C(=O)N3CCc4cc(C(=O)Nc5c(F)cccc5F)sc4-c4ncc(C)cc43)cc2)c1` [Example 133], the EC50 is < 10 nM.

For `Cc1cnc(N2CC3(CCOCC3)C2)c(C(=O)Nc2ccc(C(=O)N3CCc4cc(C(=O)Nc5c(C)cccc5F)sc4-c4ncc(C)cc43)cc2)c1` [Example 134], the concentration giving a half-maximal response (EC50) was < 10 nM.

As to `Cc1cnc(N2CC3(CCOCC3)C2)c(C(=O)Nc2ccc(C(=O)N3CCc4cc(C(=O)Nc5c(F)cccc5Cl)sc4-c4ncc(C)cc43)cc2)c1` [Example 136], the EC50 is < 10 nM.

Take `Cc1cnc(N2CC3(CCOCC3)C2)c(C(=O)Nc2ccc(C(=O)N3CCc4cc(-c5nc6ccccc6[nH]5)sc4-c4ncc(C)cc43)cc2)c1` [Example 137]: the EC50 is < 10 nM.

As to `Cc1cnc(N2CC3(CCOCC3)C2)c(C(=O)Nc2ccc(C(=O)N3CCc4cc(C(=O)Nc5c(F)cccc5F)sc4-c4nc(C)ccc43)cc2)c1` [Example 138], the half-maximal effective concentration (EC50) is 10 to 50 nM.

On to `Cc1cnc(N2CC3(CCOCC3)C2)c(C(=O)Nc2ccc(C(=O)N3CCc4cc(C(=O)Nc5c(C)cccc5F)sc4-c4nc(C)ccc43)cc2)c1` [Example 139], for which the EC50 is 10 to 50 nM.

`Cc1cnc(N2CC3(CCOCC3)C2)c(C(=O)Nc2ccc(C(=O)N3CCc4cc(C(=O)Nc5ncccc5F)sc4-c4nc(C)ccc43)cc2)c1` [Example 140]: the concentration giving a half-maximal response (EC50) fell in the range of 10 to 50 nM.

Consider `Cc1cnc(N2CC3(CCOCC3)C2)c(C(=O)Nc2ccc(C(=O)N3CCc4cc(C(=O)Nc5c(C)cccc5C#N)sc4-c4nc(C)ccc43)cc2)c1` [Example 141], for which the 50% effective concentration (EC50) was > 50 nM.

Regarding `Cc1cnc(N2CC3(CCOCC3)C2)c(C(=O)Nc2ccc(C(=O)N3CCc4cc(C(=O)Nc5c(F)cccc5Cl)sc4-c4nc(C)ccc43)cc2)c1` [Example 142], the EC50 lay in the range of 10 to 50 nM.

Turning to `Cc1cnc(N2CC3(CCOCC3)C2)c(C(=O)Nc2ccc(C(=O)N3CCc4cc(C(=O)Nc5c(F)cccc5C(F)(F)F)sc4-c4nc(C)ccc43)cc2)c1` [Example 143], the EC50 is > 50 nM.

As for `Cc1ccc2c(n1)-c1sc(C(=O)Nc3c(F)cccc3F)cc1CCN2C(=O)c1ccc(NC(=O)c2ccc(C)nc2N2CC3(CCOCC3)C2)cc1` [Example 144], the EC50 lay in the range of 10 to 50 nM.

`Cc1ccc2c(n1)-c1sc(C(=O)Nc3c(C)cccc3F)cc1CCN2C(=O)c1ccc(NC(=O)c2ccc(C)nc2N2CC3(CCOCC3)C2)cc1` [Example 145]: the half-maximal effective concentration (EC50) is > 50 nM.

`Cc1ccc2c(n1)-c1sc(C(=O)Nc3ncccc3F)cc1CCN2C(=O)c1ccc(NC(=O)c2ccc(C)nc2N2CC3(CCOCC3)C2)cc1` [Example 146]: the concentration for a half-maximal effect (EC50) lay within 10 to 50 nM.

With `Cc1ccc2c(n1)-c1sc(C(=O)Nc3c(C)cccc3C#N)cc1CCN2C(=O)c1ccc(NC(=O)c2ccc(C)nc2N2CC3(CCOCC3)C2)cc1` [Example 147], the concentration giving a half-maximal response (EC50) was > 50 nM.

In the case of `Cc1ccc2c(n1)-c1sc(C(=O)Nc3c(F)cccc3Cl)cc1CCN2C(=O)c1ccc(NC(=O)c2ccc(C)nc2N2CC3(CCOCC3)C2)cc1` [Example 148], the EC50 was > 50 nM.

On to `Cc1ccc2c(n1)-c1sc(C(=O)Nc3c(F)cccc3C(F)(F)F)cc1CCN2C(=O)c1ccc(NC(=O)c2ccc(C)nc2N2CC3(CCOCC3)C2)cc1` [Example 149], for which the EC50 was > 50 nM.

As to `Cc1cnc(N2CC3(CCOCC3)C2)c(C(=O)Nc2ccc(C(=O)N3CCc4cc(NC(=O)c5c(F)cccc5F)sc4-c4ncccc43)cc2)c1` [Example 151], the EC50 is < 10 nM.

Consider `Cc1cnc(N2CC3(CCOCC3)C2)c(C(=O)Nc2ccc(C(=O)N3CCc4cc(NC(=O)c5c(C)cccc5F)sc4-c4ncccc43)cc2)c1` [Example 152], for which the EC50 is < 10 nM.

Turning to `Cc1cnc(N2CC3(CCOCC3)C2)c(C(=O)Nc2ccc(C(=O)N3CCc4cc(NC(=O)c5c(F)cccc5Cl)sc4-c4ncccc43)cc2)c1` [Example 153], the EC50 is < 10 nM.

As to `Cc1cnc(N2CC3(CCOCC3)C2)c(C(=O)Nc2ccc(C(=O)N3CCc4cc(NC(=O)c5ncccc5F)sc4-c4ncccc43)cc2)c1` [Example 154], the EC50 was < 10 nM.

Turning to `Cc1cnc(N2CC3(CCOCC3)C2)c(C(=O)Nc2ccc(C(=O)N3CCc4cc(NC(=O)c5ccccc5)sc4-c4ncccc43)cc2)c1` [Example 155], the EC50 is < 10 nM.

For the compound `Cc1cnc(N2CC3(CCOCC3)C2)c(C(=O)Nc2ccc(C(=O)N3CCc4cc(NC(=O)c5ccccc5F)sc4-c4ncccc43)cc2)c1` [Example 156], the concentration for a half-maximal effect (EC50) is < 10 nM.

In the case of `Cc1ccc(C(=O)Nc2ccc(C(=O)N3CCc4cc(NC(=O)c5c(F)cccc5F)sc4-c4ncccc43)cc2)c(N2CC3(CCOCC3)C2)n1` [Example 157], the concentration for a half-maximal effect (EC50) is < 10 nM.

With `Cc1ccc(C(=O)Nc2ccc(C(=O)N3CCc4cc(NC(=O)c5c(C)cccc5F)sc4-c4ncccc43)cc2)c(N2CC3(CCOCC3)C2)n1` [Example 158], the concentration for a half-maximal effect (EC50) fell in the range of 10 to 50 nM.

Consider `Cc1ccc(C(=O)Nc2ccc(C(=O)N3CCc4cc(NC(=O)c5c(F)cccc5Cl)sc4-c4ncccc43)cc2)c(N2CC3(CCOCC3)C2)n1` [Example 159], for which the half-maximal effective concentration (EC50) lay within 10 to 50 nM.

Consider `Cc1ccc(C(=O)Nc2ccc(C(=O)N3CCc4cc(NC(=O)c5ccccc5F)sc4-c4ncccc43)cc2)c(N2CC3(CCOCC3)C2)n1` [Example 160], for which the EC50 is < 10 nM.

With `Cc1cnc2c(c1)N(C(=O)c1ccc(NC(=O)c3cccnc3N3CC4(CCOCC4)C3)cc1)CCc1cc(C(=O)Nc3c(C)cccc3F)sc1-2` [Example 161], the EC50 was < 10 nM.

Take `Cc1cnc2c(c1)N(C(=O)c1ccc(NC(=O)c3cccnc3N3CC4(CCOCC4)C3)cc1)CCc1cc(C(=O)Nc3c(F)cccc3Cl)sc1-2` [Example 162]: the EC50 is < 10 nM.

Take `Cc1cnc2c(c1)N(C(=O)c1ccc(NC(=O)c3cccnc3N3CC4(CCOCC4)C3)cc1)CCc1cc(C(=O)Nc3c(F)cccc3F)sc1-2` [Example 164]: the concentration giving a half-maximal response (EC50) is < 10 nM.

Still in this test, the particulars now being: human respiratory syncytial virus, HEp-2.
As for `O=C(Nc1ccccc1F)N[C@H]1N=C(c2ccccc2)c2ccccc2NC1=O` [RSV-604, reference compound], the EC50 was ~2400 nM.
